According to US20140072654A1, “CANCER WITH METABOLIC THERAPY AND HYPERBARIC OXYGEN” (priority 2011, published 2014):

Key:
[1] = in vivo; cited from earlier work
[2] = test system: primary cultured cortex neurons; assay: Superoxide anion production (DHE fluorescence) in neurons treated with HBO or amyloid beta; type: cell-based, rat; settings: 60 min, 5 ATA O2; 2 mM ketones
Method: Effect of ketones on superoxide production in neurons treated with Aβ1-42 and HBO and cell viability of U87MG cells was examined Primary dissociated neuronal cultures of the hippocampus and cortex were acquired from Brain Bits LLC, to increase time efficiency and to minimize cost associated with purchasing rats. Hippocampal or cortical tissue from Brain Bits (shipped in Hibernate®) were enzymatically and mechanically dissociated via pipette trituration. Neurons were plated on 12 mm glass coverslips and allowed to adhere for 1-2 hrs in an incubator maintained at 9-20% O2 in a humidified atmosphere. Cultures were maintained in media purchased from Brain Bits, including NbActiv1® and NbActive4. […]
Presence of intracellular ROS is measured by detection of superoxide anion using Dihydroethidium (DHE). […] Cells were washed in PBS and then visualized using fluorescent microscopy or quantified using spectrophotometry. […]
Acquisition and statistical analyses of fluorescence imaging was performed as previously reported (D'Agostino, 2007; Filosa, 2002; Ritucci, 1996; Ritucci, 1997; Ritucci, 1998; Crowe, 1995; Weinlich, 1998; Inglefield, 1998; Inglefield, 1999). Average fluorescence intensity (FI) for each cell is calculated as the percent change in fluorescence from baseline, […], where FIb is the basal fluorescence defined by the two images preceding the experimental recordings. […]

[3] = rat; cited from earlier work
VM-M3 cells = type: cell-based, mouse; settings: 5 mM βHB, 24, 48, 72 and 96 hrs
Method: Cell proliferation rate was measured using the MTT Cell Proliferation Assay (ATCC). Cells were plated onto a 96 well plate and grown to desired density. […] In proliferating cells, MTT is reduced to purple formazan which absorbs light at 490-520 nm and whose excitation can be measured using standard fluorescent microscopy and spectrophotometry. Rapidly dividing cells reduce MTT at very high rates, indicating their rate of proliferation. Cell proliferation can also be measured with Ki67 immunohistochemistry staining, cell viability can also be evaluated with the LDH Cytotoxicity Assay (Cayman Chemical).
Cell viability was measured using the LIVE/DEAD Viability/Cytotoxicity Kit for Mammalian Cells (Invitrogen). Cells were grown to desired density on a coverslip and washed with Dulbecco's phosphate-buffered saline (D-PBS). […] The two-color fluorescence assay contains two probes which specifically label live or dead cells. […] Calcein produces an intense green fluorescence with an excitation/emission of 495/515 nm. Ethidium homodimer-1 (Ethd-1) enters cells with damaged membranes and binds to nucleic acid. Ethd-1 bound to DNA produces a red fluorescence in dead cells with an excitation/emission of 495/635 nm. Live and dead cells were identified and quantified using standard fluorescent microscopy. […]

MCT oil
levels of ketones produced by supplementation [1]: < 500 µM

Cc1ccccc1NC(=N)Nc1ccccc1C [DTG, 1,3,-di-o-tolylguanidine]
effect on superoxide anion production under hyperoxia [2]: prevented the hyperoxia-induced increase in superoxide production

CC(C)=O [Acetone]
LD50 [3]: > 5000 mg/kg

CC(O)CC(=O)O (stereo not drawn) [βHB, β-hydroxybutyrate]
proliferation (VM-M3 cells): significantly decreased
